The text below walks through data of publication PMC9097457 (The Journal of Biological Chemistry, 2022).

Series [1] deals with T1, deoxyguanosine kinase (dGK) (Rattus norvegicus, UniProt A0A0G2K478).
T1 sequence (A0A0G2K478 with tags, fused parts or gaps): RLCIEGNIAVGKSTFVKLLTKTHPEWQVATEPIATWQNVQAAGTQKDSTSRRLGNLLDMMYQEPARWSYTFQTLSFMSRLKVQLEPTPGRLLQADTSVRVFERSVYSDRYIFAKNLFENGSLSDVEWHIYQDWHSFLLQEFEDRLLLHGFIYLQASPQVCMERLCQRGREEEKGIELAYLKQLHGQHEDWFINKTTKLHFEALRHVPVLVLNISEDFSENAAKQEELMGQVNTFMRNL
The experiment in a line: Tissue-specific phosphorylation of [3H]-dG, [3H]-dA and [3H]-ETV in isolated mitochondria. As to conditions: 2 h; for dG converted to phosphorylated products: 1 μM. The format is biochemical. On the procedure:
As noted in the Experimental procedures, these were added together to determine total phosphorylation.
(§1) To measure and compare phosphorylation and kinetics, a stable substrate concentration was necessary and EHNA (5 μM) ([50]) and I-H (2.0 μM) ([49]) were added to all mitochondrial incubations. […] The mitochondria were incubated in vitro for up to 2 h at 37 °C in a shaker bath. At the end of the incubation, reactions were terminated by addition of 10% TCA to an equal volume of incubation mixture (175 μl) and spun in a microcentrifuge to remove precipitates. The supernatant was neutralized with AG 11 A8 resin and filtered through a […] nylon syringe filter. The neutralized and filtered supernatants were analyzed by ultra high pressure liquid chromatography (UPLC). Radioactivity was determined from aliquots of each sample and processed through a Beckman Coulter multipurpose liquid scintillation counter (model 6500).
Extent of phosphorylation was measured and analyzed by UPLC (Agilent 1290) with a reverse-phase C18 column (Zorbax Eclipse Plus C18; 3.0 × 150 mm, 1.8 micron) coupled with an inline diode array to detect UV signal at 254 nm and to an inline liquid scintillation counter (β-Ram) to quantitate radioactivity.
(§2) The radioactivity in each of these peaks was quantitated and totaled to provide the total amount of radioactivity in the phosphorylated products for each labeled precursor. This total was divided by the specific radioactivity of the precursor and expressed as pmol/mg protein/hr. The Kms were calculated from Lineweaver–Burk plots 1/Vo=Km/Vmax[S]+1/Vmax

Series [2] deals with T1, deoxyguanosine kinase (dGK). Put plainly: Inhibition of [3H]-dA phosphorylation by competing deoxynucleosides in liver mitochondria. In kind it is biochemical. As to conditions: IC50 values at 1 μM substrate. On the procedure: as §1, §2
Series [3] shares this target. Put plainly: Kinetic analysis of [3H]-dG and [3H]-ETV phosphorylation and cross inhibition in heart mitochondria. The conditions noted are these: absence of ETV, data of Figure 4. In kind it is biochemical. On the procedure:
as §1, §2

For series [4] the target is unchanged. Put plainly: Kinetic analysis of [3H]-dA phosphorylation in the presence of dG or ETV in liver mitochondria. The conditions noted are these: 0.12 μM inhibitor, 4 μM dA. The format is biochemical. On the procedure: as §1
The next series deals with heart mitochondria. Put plainly: Conversion of [3H]-dGMP to [3H]-dGTP in isolated heart mitochondria. As to conditions: 1 μM precursor. The format is biochemical, rat. On the procedure:
Thus, we were interested in determining if the dGTP and dATP phosphorylation pathway in isolated mitochondria functioned similarly.
[^3H]-dGMP (1 μM) or [^3H]-dAMP (1 μM) was incubated in heart mitochondria as described for Figure 1 for the times shown, and their conversion to [^3H]-dGTP and [^3H]-dATP, respectively, determined in the presence and absence of Ap5A ([…]), a competitive inhibitor of adenylate kinase. Data are shown as a box plot of two independent experiments. The thickness of the lines indicates the spread of the duplicates. Ap5A, P1,P5-di(adenosine-5) pentaphosphate pentasodium salt.
as §1

For series [5], the system named is isolated rat heart. The experiment in a line: Phosphorylation of [3H]-ETV, [3H]-dG and [3H]-dA in the isolated perfused rat heart (Langendorff). The conditions noted are these: 60-min perfusion. On the procedure: The phosphorylation of [^3H]-dG, [^3H]-dA, and [^3H]-ETV in isolated mitochondria depends on the activity of the mitochondrial dGK. To determine the degree of phosphorylation in a whole tissue, which would include the activity of the cytosolic dCK, we utilized an isolated rat heart Langendorff retrograde perfusion model. The breakdown and phosphorylation of [^3H]-ETV, [^3H]-dG, and [^3H]-dA (0.5 μM each) was measured in the perfusates and in the hearts after 60 min of perfusion (Fig. 9, A and B). […] However, the heart was still able to take up and maintain a small amount of dG to generate 0.18 ± 0.05 pmol/mg wet heart of phosphorylated dG during the 60-min perfusion. […] Despite the loss of [^3H]-dA from the perfusate, the heart took up and maintained enough dA to produce 0.48 ± 0.08 pmol/mg wet heart of phosphorylated [^3H]-dA products at 60 min (Fig. 9B). […] Note that [^3H]-dG and [^3H]-dG catabolites equilibrate rapidly between the perfusion buffer and the heart, while the phosphorylated forms of [^3H]-dG are retained solely in the heart tissue.
Figure 9 [^3H]-ETV and [^3H]-dG phosphorylation in a perfused rat heart. Rat hearts were removed and perfused using the Langendorff method for 1 h as described in Experimental procedures with 0.5 μM [^3H]-ETV, 0.5 μM [^3H]-dG), or 0.5 μM [^3H]-dA. […] A, the amount of exogenous [^3H]-parent compound in the perfusate as a function of time, plotted as a box plot of three independent experiments. See text for details. B, the amount of phosphorylated [^3H]-ETV, [^3H]-dG, or [^3H]-dA in the heart tissue after 60 min of perfusion with additions as noted in (A). See text for details.
Rat hearts were perfused by Langendorff retrograde perfusion apparatus with [^3H]-dG, [^3H]-dA, or [^3H]-ETV for 60 min under the conditions previously described ([25], [26], [51]). Perfused hearts were snap frozen into wafers by clamping the heart in liquid nitrogen, and the frozen tissue wafers were stored in −80 °C until processed as previously described for ([24]) UPLC analysis.

In series [6] the test system is isolated rat heart. Put plainly: Breakdown of the [3H]-parent compound in the perfusate of the isolated perfused rat heart. The format is in vitro ADME. The conditions noted are these: 0.5 μM [3H]-dG alone. On the procedure: To determine the degree of phosphorylation in a whole tissue, which would include the activity of the cytosolic dCK, we utilized an isolated rat heart Langendorff retrograde perfusion model.
See text for details. […] See text for details.
Perfused hearts were snap frozen into wafers by clamping the heart in liquid nitrogen, and the frozen tissue wafers were stored in −80 °C until processed as previously described for ([24]) UPLC analysis.

The target in series [7] is T2, purine nucleoside phosphorylase (PNP) (Rattus norvegicus, UniProt P85973).
T2 sequence (P85973 1-289): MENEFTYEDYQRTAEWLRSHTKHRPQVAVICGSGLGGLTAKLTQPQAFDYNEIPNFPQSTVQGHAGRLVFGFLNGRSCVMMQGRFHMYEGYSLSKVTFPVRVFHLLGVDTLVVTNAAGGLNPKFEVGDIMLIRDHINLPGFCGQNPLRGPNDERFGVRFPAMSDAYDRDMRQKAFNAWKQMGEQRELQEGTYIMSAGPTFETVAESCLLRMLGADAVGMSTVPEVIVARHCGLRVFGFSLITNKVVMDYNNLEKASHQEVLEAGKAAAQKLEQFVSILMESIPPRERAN
Description: To measure and compare phosphorylation and kinetics, a stable substrate concentration was necessary and EHNA (5 μM) ([50]) and I-H (2.0 μM) ([49]) were added to all mitochondrial incubations. […] The mitochondria were incubated in vitro for up to 2 h at 37 °C in a shaker bath. At the end of the incubation, reactions were terminated by addition of 10% TCA to an equal volume of incubation mixture (175 μl) and spun in a microcentrifuge to remove precipitates. The supernatant was neutralized with AG 11 A8 resin and filtered through a 0.2-μM nylon syringe filter. The neutralized and filtered supernatants were analyzed by ultra high pressure liquid chromatography (UPLC). Radioactivity was determined from aliquots of each sample and processed through a Beckman Coulter multipurpose liquid scintillation counter (model 6500).

The subject of series [8] is mitochondrial polymerase γ. The conditions noted are these: cited from earlier work.

In the case of `Nc1nc2c(ncn2[C@H]2C[C@H](O)[C@@H](CO)O2)c(=O)[nH]1` [dG, deoxyguanosine], the “dG phosphorylated more readily than dA” value in series [1] (1 μM each, brain, heart, kidney, liver mitochondria) is on record as 10 fold. Besides, the “dG converted to phosphorylated products” value in series [1] (heart mitochondria) is on record as 30 pmol/mg mitochondrial protein. Further, the “dG converted to phosphorylated products” value in series [1] (liver mitochondria) is recorded as 60 pmol/mg mitochondrial protein. In addition, the “inhibition of dA phosphorylation more potent than ETV inhibition of dG phosphorylation” value in series [2] is 500 fold. For the same molecule, the “rate of [3H]-dG phosphorylation to [3H]-dGTP, control” value in series [3] is 45.9 ± 1.8 pmol/mg protein/hr. Moreover, the “inhibition of dA phosphorylation” value in series [4] was “nearly completely inhibited”. In addition, in the series with heart mitochondria, the “conversion to [3H]-dGTP at the 30-min time point” value turned out to be 22.4 ± 0.8 pmol/mg protein. Besides, the “phosphorylated [3H]-dG in heart” value in the series with isolated rat heart [5] (0.5 μM [3H]-dG + I-H 2 μM (legend: + I-H and EHNA)) is on record as 0.57 ± 0.08 pmol/mg wet heart. For the same molecule, in the series with isolated rat heart [5] (0.5 μM labeled compound alone), the “phosphorylated product in heart” value is recorded as 0.18 ± 0.05 pmol/mg wet heart. For the same molecule, in the series on isolated rat heart [6], the “parent compound in the perfusate by 60 min” value is reported as “nearly completely converted to catabolites”; the “parent compound in the perfusate within 3 min” value is given as 25 ± 8.8%; the “parent compound in the perfusate, initial level” value is 86.8 ± 0.7%. Besides, the “stability in heart mitochondria” value in series [7] (heart mitochondria, initial studies) is given as “stable”. Further, the “conversion of [3H]-dG to breakdown products” value in series [7] (kidney mitochondria, 60 min, no inhibitor) amounted to 22%.

Turning to `C=C1C(COP(=O)(O)OP(=O)(O)OP(=O)(O)O)C(O)CC1n1cnc2c(=O)[nH]c(N)nc21` (stereo not drawn) [ETV-triphosphate], the “recognition by mitochondrial polymerase γ” value in series [8] is “not recognized”.
